How the values were obtained:
Human SGLT1 = biological target: T1, Human SGLT1 (Homo sapiens, UniProt P13866); experiment: Sodium-dependent sugar uptake inhibition test in CHO-K1 cells stably expressing human SGLT1 (Test Example 2); format: cell-based; details: [14C]methyl-α-D-glucopyranoside 0.1 mM, 37° C., 30 minutes
T1 construct: expressed in transfected cells; host or cells: CHO-K1
T1 sequence (P13866 1-664): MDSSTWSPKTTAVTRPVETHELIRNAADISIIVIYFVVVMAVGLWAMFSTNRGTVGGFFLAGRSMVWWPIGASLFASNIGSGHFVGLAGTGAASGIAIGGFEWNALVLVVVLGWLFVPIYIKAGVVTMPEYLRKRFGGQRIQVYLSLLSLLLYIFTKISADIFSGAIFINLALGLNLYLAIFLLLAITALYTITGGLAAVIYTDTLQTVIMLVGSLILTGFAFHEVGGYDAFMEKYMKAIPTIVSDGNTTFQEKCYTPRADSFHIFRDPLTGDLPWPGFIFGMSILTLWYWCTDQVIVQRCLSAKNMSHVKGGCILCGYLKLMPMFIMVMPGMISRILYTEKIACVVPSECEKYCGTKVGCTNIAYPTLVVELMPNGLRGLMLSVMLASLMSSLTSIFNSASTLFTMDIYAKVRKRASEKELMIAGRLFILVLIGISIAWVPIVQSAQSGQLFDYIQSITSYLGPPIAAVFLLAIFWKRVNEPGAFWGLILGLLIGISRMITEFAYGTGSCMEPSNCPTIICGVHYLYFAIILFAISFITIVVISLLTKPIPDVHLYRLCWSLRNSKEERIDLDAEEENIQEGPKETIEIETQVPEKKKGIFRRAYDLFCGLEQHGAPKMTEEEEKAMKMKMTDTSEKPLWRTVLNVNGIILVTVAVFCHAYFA
Experimental: (§1) Human SGLT1 sequence (NM_000343) was reverse-transcripted from human small intestinal mRNA, then amplified, and then introduced into pCMV-tag5A from Stratagene Corporation. Human SGLT2 sequence (NM_003041) was prepared from human nephric mRNA as with the above method, and then introduced into pcDNA3.1+hygro from Invitrogen Corporation. Each cloned sequence was confirmed to be identical with the reported sequence.
(§2) CHO-K1 cells were transfected with the human SGLT1 and human SGLT2 expression vectors using Lipofectamine 2000 (Invitrogen Corporation). SGLT expression cells were cultured in the presence of geneticin (SGLT1) or hygromycin B (SGLT2) of the concentration of 500 μg/mL to select resistant strains. Cells were obtained using sugar uptake specific activity as an index in the following system.
(§3) Cells stably expressing human SGLT1 and human SGLT2 were used in the sodium-dependent sugar uptake activity inhibition test. Cells were incubated in 1 mL of a pretreatment buffer solution (140 mM choline chloride, 2 mM KCl, 1 mM CaCl2, 1 mM MgCl2, 10 mM HEPES/5 mM Tris, pH 7.4) for 20 minutes. The pretreatment buffer solution was removed and 200 μL of an uptake buffer containing test compounds (methyl-α-D-glucopyranoside containing [^14C]methyl-α-D-glucopyranoside (0.1 mM for SGLT1 inhibition, 1 mM for SGLT2 inhibition), 140 mM NaCl, 2 mM KCl, 1 mM CaCl2, 1 mM MgCl2, 10 mM HEPES/5 mM Tris, pH 7.4) were added, and uptake reaction was performed at 37° C. for 30 minutes (SGLT1) or for one hour (SGLT2). After the reaction, cells were washed with 1 mL of a washing buffer (10 mM methyl-α-D-glucopyranoside, 140 mM choline chloride, 2 mM KCl, 1 mM CaCl2, 1 mM MgCl2, 10 mM HEPES/5 mM Tris, pH 7.4) twice and dissolved in 400 μL of 0.2 M NaOH solution. After Aquazole 2 (Perkin Elmer Corporation) was added and mixed well, radioactivity was measured with a liquid scintillation counter (Beckman Coulter Corporation). A buffer for uptake which contained no test compound was prepared as a control group. Another buffer solution for uptake containing choline chloride in place of NaCl was also prepared for basic uptake.

[1] = system: rat kidney brush border membrane vesicles (BBMV); experiment: Glucose uptake inhibition in rat kidney brush border membrane vesicles (Test Example 1); format: biochemical; details: D-[6-3H]glucose 0.1 mM, 37° C., five seconds, read-out: IC50 (concentration at which glucose uptake was inhibited by 50%)
Experimental: After 50 μL of a suspension (protein concentration: 4 mg/mL) of rat kidney brush border membrane vesicles (brush border membrane […]: BBMV) prepared following the method described in a document (Anal. Biochem., Vol. 201, Clause 301, 1984) was preincubated at 37° C. for two minutes, 150 μL of a reaction mixture which was a mixture of a test compound dissolved in DMSO (DMSO final concentration: 1%), 100 mM mannitol, 100 mM NaSCN or KSCN, 10 mM HEPES/Tris pH 7.4, D-glucose (final concentration: 0.1 mM) and 1 μCi of D-[6-^3H] glucose (Amersham) was added to this. After performing a reaction at 37° C. for five seconds, 1 mL of an ice cooled reaction terminating solution (150 mM NaCl, 10 mM HEPES/Tris pH 7.4, 0.3 mM phlorizin) was added to the reaction mixture to terminate the reaction, and BBMV was immediately separated by rapid filtration using a membrane filter (HAWP02500 having a pore size of 0.45 μm, Millipore). The membrane filter was washed three times with 4.5 mL of the ice cooled reaction terminating solution. After the membrane was dried sufficiently, radioactivity was measured with a liquid scintillation counter (Beckman) to quantify the amount of glucose taken in BBMV on the membrane filter.

Human SGLT2 = biological target: T2, Human SGLT2 (Homo sapiens, UniProt P31639); experiment: Sodium-dependent sugar uptake inhibition test in CHO-K1 cells stably expressing human SGLT2 (Test Example 2); format: cell-based; details: for IC50: CHO-K1 cells, [14C]methyl-α-D-glucopyranoside 1 mM, 37° C., one hour; for SGLT1/SGLT2: ratio of IC50 human SGLT1 to IC50 human SGLT2
T2 construct: expressed in transfected cells; host or cells: CHO-K1
T2 sequence (P31639 1-672): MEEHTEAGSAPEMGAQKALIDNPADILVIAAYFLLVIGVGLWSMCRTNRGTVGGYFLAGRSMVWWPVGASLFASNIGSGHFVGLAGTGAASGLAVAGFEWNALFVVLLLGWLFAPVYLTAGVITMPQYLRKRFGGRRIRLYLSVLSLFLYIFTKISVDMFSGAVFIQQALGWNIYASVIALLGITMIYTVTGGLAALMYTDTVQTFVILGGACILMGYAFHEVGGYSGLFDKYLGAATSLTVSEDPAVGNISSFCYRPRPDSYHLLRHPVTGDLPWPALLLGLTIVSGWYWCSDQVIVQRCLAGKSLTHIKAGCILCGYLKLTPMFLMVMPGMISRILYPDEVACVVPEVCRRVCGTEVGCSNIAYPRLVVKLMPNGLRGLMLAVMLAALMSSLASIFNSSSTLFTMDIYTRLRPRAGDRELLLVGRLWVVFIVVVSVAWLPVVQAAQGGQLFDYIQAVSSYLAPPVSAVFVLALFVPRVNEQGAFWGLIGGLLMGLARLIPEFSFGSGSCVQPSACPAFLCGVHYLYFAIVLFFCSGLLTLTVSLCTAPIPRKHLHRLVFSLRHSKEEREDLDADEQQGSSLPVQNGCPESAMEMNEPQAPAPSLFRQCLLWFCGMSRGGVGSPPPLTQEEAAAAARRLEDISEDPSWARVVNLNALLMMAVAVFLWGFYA
Experimental: as §1, §2, §3

| IC50 (Human SGLT1) [nM] | IC50 [1] [nM] | IC50 (Human SGLT2) [nM] | SGLT1/SGLT2 (Human SGLT2) | melting point [°C] | SMILES |
| --- | --- | --- | --- | --- | --- |
| 27400 | 1600 | 2830 | 9.7 |  | CCOc1ccc(Cc2cccc([C@@H]3S[C@H](CO)[C@@H](O)[C@H](O)[C@H]3O)c2)cc1 [Compound 75, (1S)-1,5-Anhydro-1-[3-(4-ethoxybenzyl)phenyl]-1-thio-D-glucitol] |
|  | 320 | 80 | 14.6 |  | CCOc1ccc(Cc2cc([C@@H]3S[C@H](CO)[C@@H](O)[C@H](O)[C@H]3O)ccc2Cl)cc1 [Compound 76, (1S)-1,5-Anhydro-1-[4-chloro-3-(4-ethoxybenzyl)phenyl]-1-thio-D-glucitol] |
| 2700 | 220 | 370 | 7.2 |  | CCOc1ccc(Cc2ccc(O)c([C@@H]3S[C@H](CO)[C@@H](O)[C@H](O)[C@H]3O)c2)cc1 [Compound 79, (1S)-1,5-Anhydro-1-[3-(4-ethoxybenzyl)-6-hydroxyphenyl]-1-thio-D-glucitol] |
| 6100 |  | 1270 | 4.8 | 79 to 82 | CCOc1ccc(Cc2cc([C@@H]3S[C@H](CO)[C@@H](O)[C@H](O)[C@H]3O)ccc2Cl)cc1Cl [Compound 85, (1S)-1,5-Anhydro-1-[4-chloro-3-(3-chloro-4-ethoxybenzyl)phenyl]-1-thio-D-glucitol] |
| 4400 |  | 1520 | 2.9 | 186 to 190 | CCOc1ccc(Cc2cc([C@@H]3S[C@H](CO)[C@@H](O)[C@H](O)[C@H]3O)c(O)cc2O)cc1 [Compound 100, (1S)-1,5-Anhydro-1-[3-(4-ethoxybenzyl)-4,6-dihydroxyphenyl]-1-thio-D-glucitol] |
| 700 | 350 | 1120 | 0.6 | 91 to 105 | COc1ccc([C@@H]2S[C@H](CO)[C@@H](O)[C@H](O)[C@H]2O)cc1Cc1cc2ccccc2s1 [Compound 127, (1S)-1,5-Anhydro-1-[3-[(1-benzothien-2-yl)methyl]-4-methoxyphenyl]-1-thio-D-glucitol] |
| 600 | 790 | 140 | 4.4 | 105 to 115 | OC[C@H]1S[C@@H](c2ccc(Cl)c(Cc3cc4ccccc4s3)c2)[C@H](O)[C@@H](O)[C@@H]1O [Compound 128, (1S)-1,5-Anhydro-1-[3-[(1-benzothien-2-yl)methyl]-4-chlorophenyl]-1-thio-D-glucitol] |
| 12800 |  | 3000 | 4.3 | 159.5 to 160 | OC[C@H]1S[C@@H](c2cccc(Cc3cc4ccccc4s3)c2)[C@H](O)[C@@H](O)[C@@H]1O [Compound 129, (1S)-1,5-Anhydro-1-[3-[(1-benzothien-2-yl)methyl]-phenyl]-1-thio-D-glucitol] |
| > 10000 |  | 2120 |  | 97.5 to 98 | COc1ccc(Cc2cc3ccccc3s2)cc1[C@@H]1S[C@H](CO)[C@@H](O)[C@H](O)[C@H]1O [Compound 130, (1S)-1,5-Anhydro-1-[3-[(1-benzothien-2-yl)methyl]-6-methoxyphenyl]-1-thio-D-glucitol] |

Source: US8017792B2, “1-thio-D-glucitol derivatives” (Taisho Pharmaceutical Co., Ltd., priority 2005, dated 2011)
